Experimental data reported in patent US20250353873A1, “COMPOUNDS AND METHODS FOR MODULATING APOE EXPRESSION” (Ionis Pharmaceuticals, Inc., priority 2024, published 2025).
Strand notation (5' to 3'): a small letter for the sugar, then the base; units joined by * are phosphorothioate-linked, units joined directly phosphodiester-linked; [ ] holds rarer units or linkages, { } end groups; capitals alone tell only the bases. [ms] = mesyl phosphoramidate linkage; e = 2'-O-(2-methoxyethyl) (MOE); k = constrained ethyl (cEt); [5mC] = 5-methylcytosine; d = 2'-deoxy (DNA)

Tests used:
human APOE RNA [1] = assay: Activity in APOE C57BL/6NTac-Apoeem7250 knock-in mice, single ICV bolus, 16 weeks (Example 12); assay type: in vivo; details: single ICV bolus 300 μg, 16 weeks post treatment, normalized to mouse Ppia
How it was run: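 A single 300 μg intracerebroventricular dose was given, with PBS-treated mice as reference; cortical and spinal cord tissue was taken 16 weeks later. RT-qPCR quantified human APOE RNA, Ppia-normalized, expressed relative to PBS animals (% control).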

human APOE RNA [2] = assay: Activity in APOE C57BL/6NTac-Apoeem7250 knock-in mice, single ICV bolus, 20 weeks (Example 13); assay type: in vivo; details: single ICV bolus 300 μg, 20 weeks post treatment, normalized to mouse Ppia
How it was run: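 Cortical and spinal cord RNA was assayed by real-time RT-PCR for human APOE, normalized to mouse Ppia and reported as percent of PBS controls. Tissue was taken twenty weeks after one 300 μg intracerebroventricular bolus in APOE knock-in mice, 4 per group.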

human APOE RNA [3] = assay: Activity in APOE C57BL/6NTac-Apoeem7250 knock-in mice, single ICV bolus, 8 weeks (Example 11); assay type: in vivo; details: single ICV bolus 300 μg, 8 weeks post treatment, normalized to mouse Ppia
How it was run: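 Cortical and spinal cord human APOE RNA quantified by RT-qPCR 8 weeks after a single 300 μg ICV dose in knock-in mice, Ppia-normalized. Values are percent of levels in PBS-treated animals.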

human APOE RNA [4] = assay: Dose-dependent inhibition of human APOE RNA in HepG2 cells, electroporation, 50,000 cells per well, RT-PCR normalized to GAPDH (Example 4, Tables 8-10); assay type: cell-based; details: for APOE RNA (% UTC) 1,280 nM: 24-hour treatment, 1,280 nM; for APOE RNA (% UTC) 3,200 nM: 24-hour treatment, 3,200 nM; for APOE RNA (% UTC) 8,000 nM: 24-hour treatment, 8,000 nM; for APOE RNA (% UTC) 20,000 nM: 24-hour treatment, 20,000 nM
How it was run: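 Readout is percent APOE RNA versus untreated controls, measured by RT-PCR (primer probe set RTS3073) and normalized to human GAPDH. Modified oligonucleotides were delivered by electroporation at varying doses into HepG2 cells plated at 50,000 per well.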

human APOE RNA [5] = assay: Activity in APOE C57BL/6NTac-Apoeem7250 knock-in mice, single ICV bolus, 4 weeks (Example 10); assay type: in vivo; details: single ICV bolus 300 μg, 4 weeks post treatment, normalized to mouse Ppia
How it was run: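 Human APOE RNA, quantified by real-time RT-PCR with RTS3073 and normalized to mouse Ppia, was read in cortical brain and spinal cord 4 weeks post dosing. Dosing was a single ICV bolus of 300 μg per knock-in mouse; values are % of PBS-treated animals.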

[6] = HepG2 cells, electroporation, 24-hour treatment, 5 nM, Table 8
[7] = HepG2 cells, electroporation, 24-hour treatment, 13 nM, Table 8
[8] = HepG2 cells, electroporation, 24-hour treatment, 33 nM, Table 8
[9] = HepG2 cells, electroporation, 24-hour treatment, 82 nM, Table 8
[10] = HepG2 cells, electroporation, 24-hour treatment, 205 nM, Table 8
[11] = HepG2 cells, electroporation, 24-hour treatment, 512 nM, Table 8
[12] = HepG2 cells, electroporation, Table 8
[13] = reduction of human APOE RNA, HepG2 cells, electroporation, 24-hour treatment, Table 8

| Substance | APOE RNA (% control) Cortex (human APOE RNA [1]) [% control] | APOE RNA (% control) Spinal Cord (human APOE RNA [1]) [% control] | APOE RNA (% control) Cortex (human APOE RNA [2]) [% control] | APOE RNA (% control) Spinal Cord (human APOE RNA [2]) [% control] | APOE RNA (% control) Cortex (human APOE RNA [3]) [% control] | APOE RNA (% control) Spinal Cord (human APOE RNA [3]) [% control] | APOE RNA (% control) Cortex (human APOE RNA [5]) [% control] | APOE RNA (% control) Spinal Cord (human APOE RNA [5]) [% control] | APOE RNA (% UTC) 5 nM (human APOE RNA [4]; [6]) [% UTC] | APOE RNA (% UTC) 13 nM (human APOE RNA [4]; [7]) [% UTC] | APOE RNA (% UTC) 33 nM (human APOE RNA [4]; [8]) [% UTC] | APOE RNA (% UTC) 82 nM (human APOE RNA [4]; [9]) [% UTC] | APOE RNA (% UTC) 205 nM (human APOE RNA [4]; [10]) [% UTC] | APOE RNA (% UTC) 512 nM (human APOE RNA [4]; [11]) [% UTC] | APOE RNA (% UTC) 1,280 nM (human APOE RNA [4]; [12]) [% UTC] | APOE RNA (% UTC) 3,200 nM (human APOE RNA [4]; [12]) [% UTC] | APOE RNA (% UTC) 8,000 nM (human APOE RNA [4]; [12]) [% UTC] | APOE RNA (% UTC) 20,000 nM (human APOE RNA [4]; [12]) [% UTC] | IC50 (human APOE RNA [4]; [13]) [nM] | further results |
| --- | --- | --- | --- | --- | --- | --- | --- | --- | --- | --- | --- | --- | --- | --- | --- | --- | --- | --- | --- | --- |
| 1757574 (eA*e[5mC]eTeT*eG*eG*dT*dG[ms]dA[ms]dA[ms]dT*d[5mC]*dT*dT*dT*dA[ms]kT*kT*eA*eA; antisense) [Compound 1757574] | 55 | 22 | 60 | 68 | 44 | 21 | 43 | 32 |  |  |  |  |  |  |  |  |  |  |  | APOE RNA (% UTC) (human APOE RNA [4]; 5 nM, HepG2, electroporation, 16-hour treatment): 90 % UTC; APOE RNA (% UTC) (human APOE RNA [4]; 13 nM, HepG2, electroporation, 16-hour treatment): 80 % UTC; APOE RNA (% UTC) (human APOE RNA [4]; 33 nM, HepG2, electroporation, 16-hour treatment): 85 % UTC; APOE RNA (% UTC) (human APOE RNA [4]; 82 nM, HepG2, electroporation, 16-hour treatment): 78 % UTC; APOE RNA (% UTC) (human APOE RNA [4]; 205 nM, HepG2, electroporation, 16-hour treatment): 93 % UTC; APOE RNA (% UTC) (human APOE RNA [4]; 512 nM, HepG2, electroporation, 16-hour treatment): 66 % UTC; APOE RNA (% UTC) (human APOE RNA [4]; 1,280 nM, HepG2, electroporation, 16-hour treatment): 47 % UTC; APOE RNA (% UTC) (human APOE RNA [4]; 3,200 nM, HepG2, electroporation, 16-hour treatment): 28 % UTC; APOE RNA (% UTC) (human APOE RNA [4]; 8,000 nM, HepG2, electroporation, 16-hour treatment): 19 % UTC; APOE RNA (% UTC) (human APOE RNA [4]; 20,000 nM, HepG2, electroporation, 16-hour treatment): 20 % UTC; IC50 (human APOE RNA [4]; HepG2, electroporation, 16-hour treatment): 1170 nM |
| 1785604: modified oligonucleotide complementary to human APOE RNA (k[5mC]*dT[ms]dT[ms]kG*dG[ms]kT*dG[ms]dA[ms]dA*dT*d[5mC]*dT*dT*dT*dA*dT*kT*kA*dA[ms]kA; antisense) [compound 1785604] | 41 | 27 | 55 | 47 | 28 | 35 | 39 | 55 | 92 | 108 | 89 | 86 | 69 | 47 | 44 | 47 | 13 | 7 | 870 |  |
| 1778114: modified oligonucleotide complementary to human APOE RNA (eA*e[5mC]eTeTkG*kG*dT*dG[ms]dA[ms]dA*dT*d[5mC]*dT*dT*dT*dA[ms]eTeT*eA*eA; antisense) [compound 1778114] | 52 | 27 | 56 | 26 | 47 | 32 | 37 | 57 | 78 | 82 | 78 | 78 | 67 | 45 | 42 | 20 | 11 | 7 | 430 |  |
| 1778125: modified oligonucleotide complementary to human APOE RNA (eA*e[5mC]eTeTeGeG*dT*dG[ms]dA[ms]dA*dT*d[5mC]*dT*dT*dT*dA[ms]kTkT*eA*eA; antisense) [compound 1778125] | 75 | 42 | 81 | 49 | 59 | 37 | 40 | 52 | 108 | 100 | 77 | 74 | 63 | 39 | 22 | 17 | 5 | 3 | 320 |  |
| 1778129: modified oligonucleotide complementary to human APOE RNA (eA*e[5mC]eTeTeG*kG*dT*dG[ms]dA[ms]dA*dT*d[5mC]*dT*dT*dT*dA[ms]kT*kT*eA*eA; antisense) [compound 1778129] | 34 | 14 | 52 | 24 | 19 | 9 | 25 | 47 | 124 | 105 | 110 | 77 | 60 | 44 | 29 | 9 | 14 | 2 | 410 |  |
| 1778112 (eA*e[5mC]eTeTeGkG*dT*dG[ms]dA[ms]dA*dT*d[5mC]*dT*dT*dT*dA[ms]eTeT*eA*eA; antisense) [Compound 1778112] | 63 | 25 | 67 | 25 | 49 | 23 | 46 | 49 |  |  |  |  |  |  |  |  |  |  |  |  |
